The values that follow come from PubChem BioAssay (NCI).

Some test systems named below: BT-549 breast; COLO 205 colon; HCT-15 colon; HS 578T breast; IGROV1 ovarian; KM12 colon; MALME-3M melanoma; MDA-MB-231 breast; MDA-MB-435; MDA-N; MOLT-4 leukemia; OVCAR-3 ovarian; OVCAR-4 ovarian; PC-3 prostate; SF-295 CNS; SK-OV-3 ovarian; SNB-19 CNS; T-47D breast; TK-10 renal; UACC-257 melanoma.
Assay in all cases: inhibition of tumour cell growth, NCI panel, 48 h

Molecules are shown by their SMILES.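 Test compounds were applied to cells in 96-well plates for 48 hours at 5 doses. TGI is the concentration that stops growth completely.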

As for `O=C(NN=C1CCCCC1)NN=C1CCCCC1`, the TGI in the test with BT-549 breast, in the test with COLO 205 colon, in the test on HCT-15 colon, with HS 578T breast, in the test with IGROV1 ovarian and in the test with KM12 colon was > 100 µM each time. Besides, the TGI in the test with MALME-3M melanoma, in the test on MDA-MB-231 breast, in the test with MDA-MB-435, in the test with MDA-N, in the test with MOLT-4 leukemia and in the test with OVCAR-3 ovarian was > 100 µM each time. Besides, the TGI with OVCAR-4 ovarian, in the test on PC-3 prostate, in the test with SF-295 CNS, with SK-OV-3 ovarian, in the test on SNB-19 CNS and in the test with T-47D breast was > 100 µM in each case. The TGI with TK-10 renal and with UACC-257 melanoma was > 100 µM each time.

On to `O=S(=O)(/N=C(\NO)Nc1ccc(Cl)cc1)c1ccc(-c2ccccn2)s1`, for which the TGI with BT-549 breast, with COLO 205 colon, in the test on HCT-15 colon, in the test with HS 578T breast, in the test on IGROV1 ovarian and in the test on KM12 colon was > 100 µM each time. In addition, the TGI with MALME-3M melanoma is 96.8 µM; with MDA-MB-231 breast it was > 100 µM; in the test on MDA-MB-435, > 100 µM; in the test with MDA-N it was 94.5 µM; with MOLT-4 leukemia, > 100 µM; with OVCAR-3 ovarian, 40.2 µM. Moreover, the TGI with OVCAR-4 ovarian, in the test with PC-3 prostate, in the test on SF-295 CNS, in the test on SK-OV-3 ovarian, in the test with SNB-19 CNS and in the test on T-47D breast was > 100 µM each time. In addition, the TGI with TK-10 renal and in the test on UACC-257 melanoma was > 100 µM throughout.
